{"source": "patent US7108865B2", "about": "“Controlled-release dosage forms of azithromycin” (Pfizer Inc, priority 1994, dated 2006)", "key": {"[1]": {"experiment": "Visual Analogue Scale gastrointestinal side effects after duodenal or ileocecal dosing (Example 2)", "type": "in vivo, human", "details": "for Incidence of Visual-Analogue-Scale score >1, abdominal cramping / Incidence of Visual-Analogue-Scale score >1, abdominal pain / Incidence of Visual-Analogue-Scale score >1, nausea / Incidence of Visual-Analogue-Scale score >1, regurgitation / Incidence of Visual-Analogue-Scale score >4, abdominal cramping / Incidence of Visual-Analogue-Scale score >4, abdominal pain / Incidence of Visual-Analogue-Scale score >4, nausea / Incidence of Visual-Analogue-Scale score >4, regurgitation: any time during 96 hour post-dose, subjects reporting/total; for Mean Cumulative Score (Visual Analogue Scale), abdominal cramping / Mean Cumulative Score (Visual Analogue Scale), abdominal pain / Mean Cumulative Score (Visual Analogue Scale), nausea / Mean Cumulative Score (Visual Analogue Scale), regurgitation: entire 96 hour post-dose period", "experimental": "Healthy male subjects were divided into two groups. […] All subjects were dosed after an overnight fast.\n(§1) Prior to dosing and each blood sampling time, each subject filled out a questionnaire, which consisted of a series of “Visual Analogue Scales” in which the subject was required to rate, on a scale of 0–10, the severity of certain potential side effects. The subjects were instructed that “0” indicated an absent effect and “10” indicated the worst possible effect. The subjects were instructed to interpolate between 0 and 10 for moderate side effects.\n(§2) Analysis of side effect visual-analogue-scale data was carried out in two formats. In the first format (Table V), the analysis concentrated on the general incidence of side effects of a particular type. For each side effect type (e.g., abdominal pain), Table V reports the number of subjects who reported a score >1 at any time during the 96 hr post-dosing, and the number of subjects who reported a score >4 at any time during the 96 hr post-dosing. This analysis assumes that all scores >1 represent a real side effect occurrence, however mild or severe. A score >4 is presumed to reflect a moderate-to-severe side effect occurrence.\nIn the second format (Table VI), the analysis reflects the general severity and duration of side effects. For a particular side effect (e.g., Abdominal Pain) in a particular subject, all visual-analogue-scale scores (over the 96 hr post-dose period) were summed to give a “cumulative score” over the entire time period of evaluation. “Cumulative scores” for all members of a treatment group were summed, and divided by the number of subjects in the group, to give a Mean Cumulative Score. […] Table VI presents Mean Cumulative Scores for abdominal pain, nausea, regurgitation, and abdominal cramping."}, "[2]": {"experiment": "Visual Analogue Scale gastrointestinal side effects after 2 g oral capsule dose, single vs divided (Example 1)", "type": "in vivo, human", "design": "key to Mean Cumulative Score (Visual Analogue Scale), abdominal pain / Mean Cumulative Score (Visual Analogue Scale), nausea / Mean Cumulative Score (Visual Analogue Scale), regurgitation / Mean Cumulative Score (Visual Analogue Scale), abdominal cramping: per-subject sum of 0–10 VAS scores over 240 h, averaged over group", "details": "for Incidence of Visual-Analogue-Scale score >1, abdominal cramping / Incidence of Visual-Analogue-Scale score >1, abdominal pain / Incidence of Visual-Analogue-Scale score >1, nausea / Incidence of Visual-Analogue-Scale score >1, regurgitation / Incidence of Visual-Analogue-Scale score >4, abdominal cramping / Incidence of Visual-Analogue-Scale score >4, abdominal pain / Incidence of Visual-Analogue-Scale score >4, nausea / Incidence of Visual-Analogue-Scale score >4, regurgitation: any time during 240 hr post-dose, #patients reporting score/total # patients; for Mean Cumulative Score (Visual Analogue Scale), abdominal cramping / Mean Cumulative Score (Visual Analogue Scale), abdominal pain / Mean Cumulative Score (Visual Analogue Scale), nausea / Mean Cumulative Score (Visual Analogue Scale), regurgitation: entire 240 hour post-dose period", "experimental": "(§3) In a double-blind, randomized, placebo-controlled parallel group study, healthy male subjects were divided into three groups. Group A received a single 2 g azithromycin dose as eight 250 mg azithromycin capsules (“bolus dosing” group). Group B received the same total dose, administered as eight 250 mg capsules at the rate of one 250 mg capsule each 30 minutes for 3.5 hr (“divided dosing” group). Group C received matching placebo capsules. All subjects received eight capsules of drug or placebo at time 0, and a capsule of drug or placebo every half-hour for 3.5 hr. All subjects were dosed after an overnight fast. […] Tmax is the time at which Cmax is achieved.\nas §1\nas §2, with “II),” for “V),”, “II” for “V”, “240” for “96”\nIn the second format (Table III), the analysis reflects the general severity and duration of side effects. For a particular side effect (e.g., Abdominal Pain) in a particular subject, all visual-analogue-scale scores (over the 240 hr post-dose period) were summed to give a “cumulative score” over the entire time period of evaluation. “Cumulative scores” for all members of a treatment group were summed, and divided by the number of subjects in the group, to give a Mean Cumulative Score. […] Table III presents Mean Cumulative Scores for abdominal pain, nausea, regurgitation, and abdominal cramping."}, "[3]": {"experiment": "Serum azithromycin pharmacokinetics after 2 g oral capsule dose, single vs divided (Example 1)", "type": "in vivo", "details": "male, human, mean; for AUC(0-t): read-out: AUC0–144", "experimental": "as §3"}, "[4]": {"details": "2 g directly into the ileocecal region"}, "[5]": {"details": "2 g solution directly into the duodenum, n 5"}, "[6]": {"details": "2 g solution directly into the ileocecal region, n 6"}, "[7]": {"details": "250 mg per half-hr for 3.5 hr (2 g total), oral"}, "[8]": {"details": "250 mg/half-hr for 3.5 hr (2 g total), oral"}, "[9]": {"details": "250 mg capsule per half-hr for 3.5 hr (2 g total), oral, fasted"}, "[10]": {"details": "2 g single oral dose as eight 250 mg capsules, fasted"}}, "note": "Like-named read-outs stand apart in the source and are kept apart here.", "data": [{"smiles": "CC[C@H]1OC(=O)[C@H](C)[C@@H](O[C@H]2C[C@@](C)(OC)[C@@H](O)[C@H](C)O2)[C@H](C)[C@@H](O[C@@H]2O[C@H](C)C[C@H](N(C)C)[C@H]2O)[C@](C)(O)C[C@@H](C)CN(C)[C@H](C)[C@@H](O)[C@]1(C)O", "note": "[azithromycin, 9a-aza-9a-methyl-9-deoxo-9a-homoerythromycin A]", "values": [{"measurement": "Incidence of Visual-Analogue-Scale score >1, abdominal cramping", "setting": "[1]; 2 g directly into the duodenum", "value": "5/5"}, {"measurement": "Incidence of Visual-Analogue-Scale score >1, abdominal pain", "setting": "[1]; 2 g directly into the duodenum", "value": "4/5"}, {"measurement": "Incidence of Visual-Analogue-Scale score >1, nausea", "setting": "[1]; 2 g directly into the duodenum", "value": "2/5"}, {"measurement": "Incidence of Visual-Analogue-Scale score >1, regurgitation", "setting": "[1]; 2 g directly into the duodenum", "value": "3/5"}, {"measurement": "Incidence of Visual-Analogue-Scale score >4, abdominal cramping", "setting": "[1]; 2 g directly into the duodenum", "value": "0/5"}, {"measurement": "Incidence of Visual-Analogue-Scale score >4, abdominal pain", "setting": "[1]; 2 g directly into the duodenum", "value": "0/5"}, {"measurement": "Incidence of Visual-Analogue-Scale score >4, nausea", "setting": "[1]; 2 g directly into the duodenum", "value": "1/5"}, {"measurement": "Incidence of Visual-Analogue-Scale score >4, regurgitation", "setting": "[1]; 2 g directly into the duodenum", "value": "0/5"}, {"measurement": "Incidence of Visual-Analogue-Scale score >1, abdominal cramping", "setting": "[1]; [4]", "value": "2/6"}, {"measurement": "Incidence of Visual-Analogue-Scale score >1, abdominal pain", "setting": "[1]; [4]", "value": "2/6"}, {"measurement": "Incidence of Visual-Analogue-Scale score >1, nausea", "setting": "[1]; [4]", "value": "2/6"}, {"measurement": "Incidence of Visual-Analogue-Scale score >1, regurgitation", "setting": "[1]; [4]", "value": "0/6"}, {"measurement": "Incidence of Visual-Analogue-Scale score >4, abdominal cramping", "setting": "[1]; [4]", "value": "0/6"}, {"measurement": "Incidence of Visual-Analogue-Scale score >4, abdominal pain", "setting": "[1]; [4]", "value": "0/6"}, {"measurement": "Incidence of Visual-Analogue-Scale score >4, nausea", "setting": "[1]; [4]", "value": "0/6"}, {"measurement": "Incidence of Visual-Analogue-Scale score >4, regurgitation", "setting": "[1]; [4]", "value": "0/6"}, {"measurement": "Mean Cumulative Score (Visual Analogue Scale), abdominal cramping", "setting": "[1]; [5]", "value": 13.2}, {"measurement": "Mean Cumulative Score (Visual Analogue Scale), abdominal pain", "setting": "[1]; [5]", "value": 13.4}, {"measurement": "Mean Cumulative Score (Visual Analogue Scale), nausea", "setting": "[1]; [5]", "value": 11.6}, {"measurement": "Mean Cumulative Score (Visual Analogue Scale), regurgitation", "setting": "[1]; [5]", "value": 7.2}, {"measurement": "Mean Cumulative Score (Visual Analogue Scale), abdominal cramping", "setting": "[1]; [6]", "value": 3.3}, {"measurement": "Mean Cumulative Score (Visual Analogue Scale), abdominal pain", "setting": "[1]; [6]", "value": 2.7}, {"measurement": "Mean Cumulative Score (Visual Analogue Scale), nausea", "setting": "[1]; [6]", "value": 2.0}, {"measurement": "Mean Cumulative Score (Visual Analogue Scale), regurgitation", "setting": "[1]; [6]", "value": 0}, {"measurement": "Incidence of Visual-Analogue-Scale score >1, abdominal cramping", "setting": "[2]; [7]", "value": "4/14"}, {"measurement": "Incidence of Visual-Analogue-Scale score >1, abdominal pain", "setting": "[2]; [7]", "value": "6/14"}, {"measurement": "Incidence of Visual-Analogue-Scale score >1, nausea", "setting": "[2]; [7]", "value": "3/14"}, {"measurement": "Incidence of Visual-Analogue-Scale score >1, regurgitation", "setting": "[2]; [7]", "value": "0/14"}, {"measurement": "Incidence of Visual-Analogue-Scale score >4, abdominal cramping", "setting": "[2]; [7]", "value": "0/14"}, {"measurement": "Incidence of Visual-Analogue-Scale score >4, abdominal pain", "setting": "[2]; [7]", "value": "1/14"}, {"measurement": "Incidence of Visual-Analogue-Scale score >4, nausea", "setting": "[2]; [7]", "value": "0/14"}, {"measurement": "Incidence of Visual-Analogue-Scale score >4, regurgitation", "setting": "[2]; [7]", "value": "0/14"}, {"measurement": "Mean Cumulative Score (Visual Analogue Scale), abdominal cramping", "setting": "[2]; [8]", "value": 4.46}, {"measurement": "Mean Cumulative Score (Visual Analogue Scale), abdominal pain", "setting": "[2]; [8]", "value": 6.31}, {"measurement": "Mean Cumulative Score (Visual Analogue Scale), nausea", "setting": "[2]; [8]", "value": 2.77}, {"measurement": "Mean Cumulative Score (Visual Analogue Scale), regurgitation", "setting": "[2]; [8]", "value": 1.38}, {"measurement": "Incidence of Visual-Analogue-Scale score >1, abdominal cramping", "setting": "[2]; 2 g single oral dose", "value": "6/15"}, {"measurement": "Incidence of Visual-Analogue-Scale score >1, abdominal pain", "setting": "[2]; 2 g single oral dose", "value": "6/15"}, {"measurement": "Incidence of Visual-Analogue-Scale score >1, nausea", "setting": "[2]; 2 g single oral dose", "value": "2/15"}, {"measurement": "Incidence of Visual-Analogue-Scale score >1, regurgitation", "setting": "[2]; 2 g single oral dose", "value": "0/15"}, {"measurement": "Incidence of Visual-Analogue-Scale score >4, abdominal cramping", "setting": "[2]; 2 g single oral dose", "value": "1/15"}, {"measurement": "Incidence of Visual-Analogue-Scale score >4, abdominal pain", "setting": "[2]; 2 g single oral dose", "value": "2/15"}, {"measurement": "Incidence of Visual-Analogue-Scale score >4, nausea", "setting": "[2]; 2 g single oral dose", "value": "1/15"}, {"measurement": "Incidence of Visual-Analogue-Scale score >4, regurgitation", "setting": "[2]; 2 g single oral dose", "value": "0/15"}, {"measurement": "Mean Cumulative Score (Visual Analogue Scale), abdominal cramping", "setting": "[2]; 2 g single oral dose", "value": 4.67}, {"measurement": "Mean Cumulative Score (Visual Analogue Scale), abdominal pain", "setting": "[2]; 2 g single oral dose", "value": 6.4}, {"measurement": "Mean Cumulative Score (Visual Analogue Scale), nausea", "setting": "[2]; 2 g single oral dose", "value": 1.93}, {"measurement": "Mean Cumulative Score (Visual Analogue Scale), regurgitation", "setting": "[2]; 2 g single oral dose", "value": 0.53}, {"measurement": "Cmax", "setting": "[3]; [9]", "value": 1130, "unit": "ng/mL"}, {"measurement": "Tmax", "setting": "[3]; [9]", "value": 4.4, "unit": "h"}, {"measurement": "AUC(0-t)", "setting": "[3]; [9]", "value": 18900, "unit": "ng·h/mL"}, {"measurement": "Cmax", "setting": "[3]; 2 g single oral dose as eight 250 mg capsules, fasted healthy male subjects", "value": 1690, "unit": "ng/mL"}, {"measurement": "Tmax", "setting": "[3]; [10]", "value": 1.3, "unit": "h"}, {"measurement": "AUC(0-t)", "setting": "[3]; [10]", "value": 18800, "unit": "ng·h/mL"}]}]}
